The source of these data is ChEMBL document CHEMBL5303573, “Mapping human microbiome drug metabolism by gut bacteria and their genes” (Nature, 2019).

The nature of data set [1]: The drug is tested on Bifidobacterium ruminantium strain: fecal isolate for biotransformation. The drug concentrations were measured before and after a 12-h incubation by liquid-chromatography-coupled mass spectrometry (LC–MS). The note with it: 2 µM.
A short description of data set [2]: The drug is tested on Collinsella aerofaciens strain: ATCC25986 for biotransformation. The drug concentrations were measured before and after a 12-h incubation by liquid-chromatography-coupled mass spectrometry (LC–MS). The note with it: 2 µM.
Data set [3] can be described thus: The drug is tested on Alistipes indistinctus strain: DSM22520 for biotransformation. The drug concentrations were measured before and after a 12-h incubation by liquid-chromatography-coupled mass spectrometry (LC–MS). The note with it: 2 µM.
A short description of data set [4]: The drug is tested on Bacteroides caccae strain: ATCC43185 for biotransformation. The drug concentrations were measured before and after a 12-h incubation by liquid-chromatography-coupled mass spectrometry (LC–MS). The note with it: 2 µM.
Data set [5] is described as follows: The drug is tested on Bacteroides dorei strain: DSM17855 for biotransformation. The drug concentrations were measured before and after a 12-h incubation by liquid-chromatography-coupled mass spectrometry (LC–MS). The note with it: phocaeicola dorei, 2 µM.
Data set [6] in a line: The drug is tested on Bacteroides finegoldii strain: DSM17565 for biotransformation. The drug concentrations were measured before and after a 12-h incubation by liquid-chromatography-coupled mass spectrometry (LC–MS). The conditions noted are these: 2 µM.
The nature of data set [7]: The drug is tested on Bacteroides sp. WH2 strain: WH2 for biotransformation. The drug concentrations were measured before and after a 12-h incubation by liquid-chromatography-coupled mass spectrometry (LC–MS). The conditions noted are these: bacteroides sp. wh2, 12 h, 2 µM.
The nature of data set [8]: The drug is tested on Anaerococcus hydrogenalis strain: DSM7454 for biotransformation. The drug concentrations were measured before and after a 12-h incubation by liquid-chromatography-coupled mass spectrometry (LC–MS). The note with it: 2 µM.
Data set [9] can be described thus: The drug is tested on Blautia luti strain: DSM14534 for biotransformation. The drug concentrations were measured before and after a 12-h incubation by liquid-chromatography-coupled mass spectrometry (LC–MS). The format is ADME. On the set-up: dose 2 uM, timepoint 0 vs 12 hours. The conditions noted are these: 2 µM.
The nature of data set [10]: The drug is tested on Clostridium ramosum strain: DSM1402 for biotransformation. The drug concentrations were measured before and after a 12-h incubation by liquid-chromatography-coupled mass spectrometry (LC–MS). The conditions noted are these: thomasclavelia ramosa, 2 µM.
Data set [11] is described as follows: The drug is tested on Coprococcus comes strain: ATCC27758 for biotransformation. The drug concentrations were measured before and after a 12-h incubation by liquid-chromatography-coupled mass spectrometry (LC–MS). On the set-up: dose 2 uM, timepoint 0 vs 12 hours. The format is ADME. The conditions noted are these: 2 µM.
The nature of data set [12]: The drug is tested on Ruminococcus gnavus strain: ATCC29149 for biotransformation. The drug concentrations were measured before and after a 12-h incubation by liquid-chromatography-coupled mass spectrometry (LC–MS). The conditions noted are these: mediterraneibacter gnavus, 2 µM.
A short description of data set [13]: The drug is tested on Ruminococcus torques strain: ATCC27756 for biotransformation. The drug concentrations were measured before and after a 12-h incubation by liquid-chromatography-coupled mass spectrometry (LC–MS). The format is ADME. On the set-up: dose 2 uM, timepoint 0 vs 12 hours. The note with it: 2 µM.
A short description of data set [14]: The drug is tested on Edwardsiella tarda strain: ATCC23685 for biotransformation. The drug concentrations were measured before and after a 12-h incubation by liquid-chromatography-coupled mass spectrometry (LC–MS). The note with it: 2 µM.
For data set [15] the following is noted: anaerostipes sp., 12 h, 2 µM.
Description: The drug is tested on Anaerostipes sp. strain: fecal isolate for biotransformation. The drug concentrations were measured before and after a 12-h incubation by liquid-chromatography-coupled mass spectrometry (LC–MS)
The conditions of data set [16]: enterocloster bolteae, 12 h, 2 µM.
Description: The drug is tested on Clostridium bolteae strain: ATCCBAA-613 for biotransformation. The drug concentrations were measured before and after a 12-h incubation by liquid-chromatography-coupled mass spectrometry (LC–MS)
Data set [17] is described as follows: The drug is tested on Eubacterium rectale strain: ATCC33656 for biotransformation. The drug concentrations were measured before and after a 12-h incubation by liquid-chromatography-coupled mass spectrometry (LC–MS). The note with it: agathobacter rectalis, 2 µM.
Data set [18] can be described thus: The drug is tested on Bacteroides fragilis strain: HMW610 for biotransformation. The drug concentrations were measured before and after a 12-h incubation by liquid-chromatography-coupled mass spectrometry (LC–MS). The note with it: 2 µM.
Data set [19] is described as follows: The drug is tested on Bacteroides fragilis strain: HMW615 for biotransformation. The drug concentrations were measured before and after a 12-h incubation by liquid-chromatography-coupled mass spectrometry (LC–MS). The note with it: 2 µM.

As for `CC(C)(C)N.CCC[C@H](N[C@@H](C)C(=O)N1[C@H](C(=O)O)C[C@@H]2CCCC[C@@H]21)C(=O)OCC` [PERINDOPRIL ERBUMINE], the “Bacterial Biotransformation” value in data set [1], in [2], in data set [3], in [4], in [5] and in [6] was “Compound NOT metabolized” each time. The “Bacterial Biotransformation” value in data set [7], in data set [8], in data set [9], in data set [10], in [11] and in data set [12] was “Compound NOT metabolized” throughout. Besides, the “Bacterial Biotransformation” value in data set [13], in data set [14], in data set [15] and in data set [16] was “Compound NOT metabolized” throughout.
For `CN(C)C(=O)Oc1cccc([N+](C)(C)C)c1.[Br-]` [NEOSTIGMINE BROMIDE], the “Bacterial Biotransformation” value in [1] is given as “Compound NOT metabolized”; in [2], “Compound NOT metabolized”; in data set [3], “Compound NOT metabolized”; in data set [4], “Compound NOT metabolized”; in data set [5] it was “Compound metabolized”; in data set [6], “Compound NOT metabolized”. Besides, the “Bacterial Biotransformation” value in data set [7], in data set [8], in data set [9], in data set [10], in data set [11] and in [17] was “Compound NOT metabolized” each time. Moreover, the “Bacterial Biotransformation” value in data set [12], in data set [13], in [14], in data set [15] and in data set [16] was “Compound NOT metabolized” in each case.
In the case of `CN(C)CCOC(C)(c1ccccc1)c1ccccn1.O=C(O)CCC(=O)O` (configuration not stated) [DOXYLAMINE SUCCINATE], the “Bacterial Biotransformation” value in [2], in [3], in data set [4], in [5], in data set [6] and in data set [18] was “Compound NOT metabolized” in each case. In addition, the “Bacterial Biotransformation” value in [19], in [7], in [8], in data set [9], in data set [10] and in data set [11] was “Compound NOT metabolized” in each case. The “Bacterial Biotransformation” value in [12], in data set [13], in data set [14], in data set [15] and in [16] was “Compound NOT metabolized” in each case.
Take `CC(=O)OCC(=O)[C@@]1(OC(C)=O)[C@@H](C)C[C@H]2[C@@H]3C[C@H](F)C4=CC(=O)C=C[C@]4(C)[C@@]3(F)[C@@H](O)C[C@@]21C` [DIFLORASONE DIACETATE]: the “Bacterial Biotransformation” value in data set [1], in data set [2], in data set [3], in [4], in data set [5] and in [6] was “Compound metabolized” throughout. The “Bacterial Biotransformation” value in data set [18] was “Compound metabolized”; in data set [19], “Compound metabolized”; in data set [7] it was “Compound metabolized”; in [8], “Compound NOT metabolized”; in data set [9] it was “Compound metabolized”; in data set [11], “Compound NOT metabolized”. For the same molecule, the “Bacterial Biotransformation” value is “Compound NOT metabolized” in data set [17]; “Compound NOT metabolized” in [12]; “Compound NOT metabolized” in data set [14]; “Compound metabolized” in data set [15]; “Compound metabolized” in [16].
Turning to `CC1Cc2ccccc2N1NC(=O)c1ccc(Cl)c(S(N)(=O)=O)c1` (configuration not stated) [INDAPAMIDE], the “Bacterial Biotransformation” value in data set [1], in data set [3], in data set [4], in data set [5], in data set [19] and in [7] was “Compound NOT metabolized” in each case. The “Bacterial Biotransformation” value in [8], in data set [9], in [10], in data set [11], in data set [17] and in data set [12] was “Compound NOT metabolized” each time. Also, the “Bacterial Biotransformation” value in [13], in data set [14], in data set [15] and in [16] was “Compound NOT metabolized” each time.
As for `CN(C)CCC=C1c2ccccc2COc2ccccc21` [DOXEPIN], the “Bacterial Biotransformation” value in data set [1], in data set [2], in data set [3], in [4], in data set [5] and in data set [6] was “Compound NOT metabolized” throughout. Further, the “Bacterial Biotransformation” value in data set [18], in data set [19], in data set [7], in data set [8], in data set [9] and in data set [11] was “Compound NOT metabolized” each time. Further, the “Bacterial Biotransformation” value in [17], in data set [12], in [13], in data set [14], in data set [15] and in data set [16] was “Compound NOT metabolized” throughout.
With `CN1C(=O)CC(C)(c2ccccc2)C1=O` (configuration not stated) [METHSUXIMIDE], the “Bacterial Biotransformation” value was “Compound NOT metabolized” in [1]; “Compound NOT metabolized” in data set [2]; “Compound NOT metabolized” in [3]; “Compound NOT metabolized” in data set [4]; “Compound metabolized” in data set [5]; “Compound NOT metabolized” in data set [6]. Besides, the “Bacterial Biotransformation” value in data set [7], in data set [8], in data set [9], in [10], in data set [11] and in [12] was “Compound NOT metabolized” each time. Moreover, the “Bacterial Biotransformation” value in [13], in data set [14], in data set [15] and in [16] was “Compound NOT metabolized” throughout.
